Measured values from ChEMBL document CHEMBL6096732 (J Med Chem, 2025).
pIC50: −log10 of the molar value. Calls of active or inactive are those of the source. The calls are words filed in the database; no cut-off is given here.

Columns and labels:
[1] = Toxicity in male C57BL/6 mouse implanted with mouse B16-F10 cells assessed as histopathological changes in kidney at 50 mg/kg, po administered once daily for 14 days by HandE staining based microscopic analysis; type: organism-based; settings: in vivo, 336 h, time 14 day
[2] = tested on: 4T1; assay: Antitumor activity against mouse 4T1 cells implanted in female BALB/c mouse model assessed as induction of DNA damage by measuring increase in gamma-H2AX expression in tumor administrated orally as once daily dose via gavage for 14 days by Western blot analysis; type: functional, cell-based; settings: route po, time 14.0 day
[3] = Toxicity in male C57BL/6 mouse implanted with mouse B16-F10 cells assessed as histopathological changes in liver at 50 mg/kg, po co-administered with NP-19 as once daily dosage via gavage for 14 days by HandE staining based microscopic analysis; type: organism-based; settings: in vivo, 336 h, time 14 day
[4] = biological target: T1, Histone deacetylase 3 (Mus musculus) (UniProt O88895); assay: In vivo inhibition of HDAC3 in male C57BL/6 mouse model implanted with mouse B16-F10 cells assessed as increase in acetylated histone H3 level at 50 mg/kg, po administered once daily via gavage for 14 days by Western blot analysis; type: functional, organism-based; settings: time 14.0 day
T1 sequence (whole entry): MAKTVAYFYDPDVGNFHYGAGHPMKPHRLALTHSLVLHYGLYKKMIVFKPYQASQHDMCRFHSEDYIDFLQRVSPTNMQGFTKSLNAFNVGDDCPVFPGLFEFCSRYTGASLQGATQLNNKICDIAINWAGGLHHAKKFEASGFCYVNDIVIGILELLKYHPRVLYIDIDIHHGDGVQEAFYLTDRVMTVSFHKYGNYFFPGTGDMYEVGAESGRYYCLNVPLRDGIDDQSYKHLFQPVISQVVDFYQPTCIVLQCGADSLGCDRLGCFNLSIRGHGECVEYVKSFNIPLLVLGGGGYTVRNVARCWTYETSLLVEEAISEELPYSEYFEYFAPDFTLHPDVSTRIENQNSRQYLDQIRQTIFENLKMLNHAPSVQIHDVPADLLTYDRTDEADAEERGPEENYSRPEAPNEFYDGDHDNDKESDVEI

[5] = AUMC (0 to infinity) in male Sprague-Dawley rat at 2 mg/kg, iv measured after 12 hrs by LC-MS/MS analysis; type: ADME, organism-based; settings: in vivo
[6] = biological target: Histone deacetylase 4 (Homo sapiens, UniProt P56524); assay: Inhibition of recombinant HDAC4 (unknown origin) using Boc-Lys(trifluoroacetyl)-AMC as substrate preincubated for 1 hr followed by substrate addition and measured after 2 hrs by fluorescence based micro plate reader analysis
Histone deacetylase 4, sequence (P56524 whole entry): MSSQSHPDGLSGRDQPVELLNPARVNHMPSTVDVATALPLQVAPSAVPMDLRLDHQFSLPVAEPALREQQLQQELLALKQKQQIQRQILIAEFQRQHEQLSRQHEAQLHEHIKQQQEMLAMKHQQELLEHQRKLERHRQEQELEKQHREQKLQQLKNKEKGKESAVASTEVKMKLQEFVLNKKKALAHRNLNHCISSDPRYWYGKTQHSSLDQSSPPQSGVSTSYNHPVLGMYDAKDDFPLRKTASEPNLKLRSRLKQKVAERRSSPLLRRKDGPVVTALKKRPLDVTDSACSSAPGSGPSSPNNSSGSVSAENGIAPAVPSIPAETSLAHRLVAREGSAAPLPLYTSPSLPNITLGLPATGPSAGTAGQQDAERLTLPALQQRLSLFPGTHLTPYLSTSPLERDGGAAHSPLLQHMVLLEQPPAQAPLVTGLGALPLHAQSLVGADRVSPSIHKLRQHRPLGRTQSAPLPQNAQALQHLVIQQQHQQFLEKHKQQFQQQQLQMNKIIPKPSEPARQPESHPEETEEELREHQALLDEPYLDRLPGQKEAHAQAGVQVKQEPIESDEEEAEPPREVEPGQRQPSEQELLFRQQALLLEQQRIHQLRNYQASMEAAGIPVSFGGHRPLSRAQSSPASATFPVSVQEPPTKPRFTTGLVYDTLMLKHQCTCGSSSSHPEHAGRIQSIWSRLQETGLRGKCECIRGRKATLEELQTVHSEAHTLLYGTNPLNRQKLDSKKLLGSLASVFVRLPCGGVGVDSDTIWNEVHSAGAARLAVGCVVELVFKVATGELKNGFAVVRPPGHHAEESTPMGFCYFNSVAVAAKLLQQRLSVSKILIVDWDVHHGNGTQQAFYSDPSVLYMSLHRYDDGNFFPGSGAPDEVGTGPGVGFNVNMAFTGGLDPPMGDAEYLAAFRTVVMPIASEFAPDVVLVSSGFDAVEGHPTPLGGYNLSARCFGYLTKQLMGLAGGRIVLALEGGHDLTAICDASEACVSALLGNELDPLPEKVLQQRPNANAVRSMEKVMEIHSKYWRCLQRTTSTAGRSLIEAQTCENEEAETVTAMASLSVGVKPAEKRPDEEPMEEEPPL

[7] = biological target: Histone deacetylase 1 (Homo sapiens, UniProt Q13547); settings: dose 500.0 nM, time 3.0 hrs
Histone deacetylase 1, sequence (Q13547 whole entry): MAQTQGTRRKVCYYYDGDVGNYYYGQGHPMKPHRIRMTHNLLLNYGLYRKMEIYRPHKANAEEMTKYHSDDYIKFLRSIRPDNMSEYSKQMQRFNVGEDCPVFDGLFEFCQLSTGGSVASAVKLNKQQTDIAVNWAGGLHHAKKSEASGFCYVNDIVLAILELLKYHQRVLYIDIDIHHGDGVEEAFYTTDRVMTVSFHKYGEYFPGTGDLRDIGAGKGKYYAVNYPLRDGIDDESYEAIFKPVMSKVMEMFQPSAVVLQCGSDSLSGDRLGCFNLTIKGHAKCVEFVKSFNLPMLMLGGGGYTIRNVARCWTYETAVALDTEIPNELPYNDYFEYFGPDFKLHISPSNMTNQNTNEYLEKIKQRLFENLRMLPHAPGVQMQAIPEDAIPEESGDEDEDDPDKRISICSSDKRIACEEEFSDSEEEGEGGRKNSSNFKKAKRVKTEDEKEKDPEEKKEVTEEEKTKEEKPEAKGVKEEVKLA

[8] = biological target: Histone deacetylase 5 (Homo sapiens, UniProt Q9UQL6); assay: Inhibition of recombinant HDAC5 (unknown origin) using Boc-Lys(trifluoroacetyl)-AMC as substrate preincubated for 1 hr followed by substrate addition and measured after 2 hrs by fluorescence based micro plate reader analysis
Histone deacetylase 5, sequence (Q9UQL6 whole entry): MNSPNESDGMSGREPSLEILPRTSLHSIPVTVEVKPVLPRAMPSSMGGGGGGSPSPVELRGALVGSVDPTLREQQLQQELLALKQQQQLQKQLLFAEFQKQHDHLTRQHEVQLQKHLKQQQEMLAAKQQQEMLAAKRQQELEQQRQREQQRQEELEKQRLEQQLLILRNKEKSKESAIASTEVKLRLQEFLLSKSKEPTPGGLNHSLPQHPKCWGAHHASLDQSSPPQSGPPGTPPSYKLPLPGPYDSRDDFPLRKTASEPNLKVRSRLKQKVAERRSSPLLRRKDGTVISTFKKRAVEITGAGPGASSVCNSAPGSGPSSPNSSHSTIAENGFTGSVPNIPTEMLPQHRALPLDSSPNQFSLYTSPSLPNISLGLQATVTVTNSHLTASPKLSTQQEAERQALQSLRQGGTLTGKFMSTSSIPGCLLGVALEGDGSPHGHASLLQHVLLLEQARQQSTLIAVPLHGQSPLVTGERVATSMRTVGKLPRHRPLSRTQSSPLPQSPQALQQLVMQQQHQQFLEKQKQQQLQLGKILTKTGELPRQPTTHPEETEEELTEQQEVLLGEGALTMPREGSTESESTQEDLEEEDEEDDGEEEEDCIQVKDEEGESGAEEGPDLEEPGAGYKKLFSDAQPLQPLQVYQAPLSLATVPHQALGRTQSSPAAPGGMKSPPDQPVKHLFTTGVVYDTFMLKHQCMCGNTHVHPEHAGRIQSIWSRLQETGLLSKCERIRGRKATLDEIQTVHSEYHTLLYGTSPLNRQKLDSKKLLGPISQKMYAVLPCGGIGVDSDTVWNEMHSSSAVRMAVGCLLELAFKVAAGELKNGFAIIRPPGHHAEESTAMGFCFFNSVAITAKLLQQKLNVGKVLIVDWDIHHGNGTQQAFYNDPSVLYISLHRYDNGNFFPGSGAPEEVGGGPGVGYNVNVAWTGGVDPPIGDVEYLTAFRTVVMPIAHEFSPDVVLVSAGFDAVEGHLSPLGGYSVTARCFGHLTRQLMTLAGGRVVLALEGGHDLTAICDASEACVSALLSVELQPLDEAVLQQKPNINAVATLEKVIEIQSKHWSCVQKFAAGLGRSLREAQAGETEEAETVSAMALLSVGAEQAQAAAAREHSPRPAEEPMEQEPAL

[9] = biological target: T1, Histone deacetylase 3 (Mus musculus); assay: In vivo inhibition of HDAC3 in male C57BL/6 mouse model implanted with mouse B16-F10 cells assessed as increase in acetylated histone H3 level in tumor at 50 mg/kg, po co-administered with NP-19 as once daily dosage via gavage for 14 days by DAPI staining based immunofluorescence analysis; type: functional, organism-based; settings: time 14.0 day
[10] = tested on: 4T1; assay: Effect on acetylated alpha-tubulin expression level in mouse 4T1 cells at 5 to 20 uM incubated for 24 hrs by Western blot analysis; type: functional, cell-based; settings: dose 5-20 µM
[11] = tested on: SK-OV-3; assay: cells; type: functional, cell-based; settings: Homo sapiens, SK-OV-3, 72 h
Description: Antiproliferative activity against human SK-OV-3 cells assessed as inhibition of cell growth incubated for 72 hrs by MTT assay

[12] = AUC (0 to 12 hrs) in male Sprague-Dawley rat at 2 mg/kg, iv measured after 12 hrs by LC-MS/MS analysis; type: ADME, organism-based; settings: in vivo
[13] = Toxicity in male C57BL/6 mouse implanted with mouse B16-F10 cells assessed as histopathological changes in heart at 50 mg/kg, po co-administered with NP-19 as once daily dosage via gavage for 14 days by HandE staining based microscopic analysis; type: organism-based; settings: in vivo, 336 h, time 14 day
[14] = tested on: Mus musculus; assay: Immunomodulatory activity in male C57BL/6 mouse model implanted with mouse B16-F10 cells assessed as increase in CD3+ CD8+ T cells in tumor at 50 mg/kg, po co-administered with NP-19 as once daily dosage via gavage for 14 days by flow cytometric analysis (reference value: 3.2 %); type: functional; settings: time 14 day
[15] = Oral bioavailability in male Sprague-Dawley rat at 20 mg/kg measured after 12 hrs by LC-MS/MS analysis; type: ADME, organism-based; settings: in vivo
[16] = Clast in male Sprague-Dawley rat at 20 mg/kg, po measured after 12 hrs by LC-MS/MS analysis; type: ADME, organism-based; settings: in vivo, read-out: Clast
[17] = tested on: 4T1; assay: Antitumor activity against mouse 4T1 cells implanted in female BALB/c mouse model assessed as induction of DNA damage by measuring increase in gamma-H2AX expression in tumor administrated orally as once daily dose via gavage for 14 days by DAPI staining based immunofluorescence analysis; type: functional, cell-based; settings: route po, time 14.0 day
[18] = tested on: 4T1; assay: Antitumor activity against mouse 4T1 cells implanted in female BALB/c mouse model assessed as decrease in PAPR1 expression in tumor administrated orally as once daily dose via gavage for 14 days by Western blot analysis; type: functional, cell-based; settings: route po, time 14.0 day
[19] = biological target: Programmed cell death 1 ligand 1 (Mus musculus) (UniProt Q9EP73); assay: Induction of PD-L1 degradation in mouse B16-F10 cells assessed as decrease in PD-L1 protein level at 2 uM measured after 24 hrs in presence of CA-074 by Western blot analysis; type: cell-based
Programmed cell death 1 ligand 1 (Mus musculus), sequence (Q9EP73 whole entry): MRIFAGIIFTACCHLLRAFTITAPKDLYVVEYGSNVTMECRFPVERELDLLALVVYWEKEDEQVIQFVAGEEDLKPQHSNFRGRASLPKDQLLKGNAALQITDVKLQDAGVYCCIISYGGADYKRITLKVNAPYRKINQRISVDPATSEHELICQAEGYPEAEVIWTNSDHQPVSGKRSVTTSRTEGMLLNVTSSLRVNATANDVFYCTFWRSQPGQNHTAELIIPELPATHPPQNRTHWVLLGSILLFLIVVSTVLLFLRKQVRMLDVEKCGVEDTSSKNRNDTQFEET

[20] = Tmax in male Sprague-Dawley rat at 2 mg/kg, iv measured after 12 hrs by LC-MS/MS analysis; type: ADME, organism-based; settings: in vivo
[21] = biological target: Histone deacetylase 11 (Homo sapiens, UniProt Q96DB2); assay: Inhibition of recombinant HDAC11 (unknown origin) preincubated for 1 hr followed by substrate addition and measured after 2 hrs by fluorescence based micro plate reader analysis
Histone deacetylase 11, sequence (Q96DB2 whole entry): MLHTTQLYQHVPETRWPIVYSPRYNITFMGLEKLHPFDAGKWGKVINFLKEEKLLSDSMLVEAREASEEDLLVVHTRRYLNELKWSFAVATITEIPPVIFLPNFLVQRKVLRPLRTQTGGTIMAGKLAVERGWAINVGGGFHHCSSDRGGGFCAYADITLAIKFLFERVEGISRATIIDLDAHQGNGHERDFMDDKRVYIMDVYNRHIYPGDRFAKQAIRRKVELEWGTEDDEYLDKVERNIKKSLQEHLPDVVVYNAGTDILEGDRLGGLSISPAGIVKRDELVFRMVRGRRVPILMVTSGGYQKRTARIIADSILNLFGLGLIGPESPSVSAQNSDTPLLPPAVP

[22] = tested on: B16-F10; assay: Inhibition of cell migration in mouse B16-F10 cells assessed as wound area at 20 uM incubated for 24 hrs by wound healing assay (reference value: 50.36 +/- 1.68 %); type: functional; set-up: scale not given: the % may be the effect or the level left
[23] = Apparent volume of distribution in male Sprague-Dawley rat at 2 mg/kg, iv measured after 12 hrs by LC-MS/MS analysis; type: ADME, organism-based; settings: in vivo, read-out: Vz
[24] = VRT (0 to infinity) in male Sprague-Dawley rat at 2 mg/kg, iv measured after 12 hrs by LC-MS/MS analysis; type: ADME, organism-based; settings: in vivo
[25] = Tmax in male Sprague-Dawley rat at 20 mg/kg, po measured after 12 hrs by LC-MS/MS analysis; type: ADME, organism-based; settings: in vivo
[26] = tested on: 4T1; assay: Antitumor activity against mouse 4T1 cells implanted in female BALB/c mouse model assessed as induction of DNA damage by measuring increase in gamma-H2AX expression in tumor co-administrated orally with olaparib as once daily dose via gavage for 14 days by immunohistochemistry analysis; type: functional, cell-based; settings: route po, time 14.0 day
[27] = tested on: Mus musculus; assay: Immunomodulatory activity in male C57BL/6 mouse model implanted with mouse B16-F10 cells assessed as increase in CD3+ CD4+ T cells in tumor at 50 mg/kg, po administered once daily for 14 days by flow cytometric analysis (reference value: 3.1 %); type: functional; settings: time 14 day

CCCNNC(=O)c1ccc(Cn2c3ccccc3c3c(-c4ccccn4)nc4ccccc4c32)cc1
Activity [1]: Non-toxic
Activity [2]: Active
Activity [3]: Non-toxic
inhibition [4]: Active
AUMC [5]: 630.022 hr.hr.ug/L
pIC50 [6]: < 5.00
inhibition [7]: 14%
pIC50 [8]: < 5.00
inhibition [9]: Active
Activity [10]: inactive
pIC50 [11]: 4.89
AUC(0-t) at 12 h [12]: 857 ng·h/mL
Activity [13]: Non-toxic
Activity [14]: 32%
bioavailability [15]: 95.3%
concentration at 12 h [16]: 106 ng/mL
Activity [17]: Active; Comparable To The Effect Of Olaparib
Activity [18]: Active
Activity [19]: Not active; Ctsb-Mediated Lysosomal Degradation Mechanism Is Observed
Tmax [20]: 4.98 min
pIC50 [21]: 5.05
Activity [22]: 5.9%
Vd [23]: 2.17 L/kg
VRT [24]: 0.664 hr2
Tmax [25]: 30 min
Activity [26]: Active
Activity [27]: 22%
